# Measured values published in PMC2245808, “Persistence of duplicated PAC1 receptors in the teleost, Sparus auratus” (BMC Evolutionary Biology, 2007).
# Experiments:
# [1] = system: Cos7 cell lines expressing the recombinant vector; assay: Forskolin activation of transfected Cos7 cells (cAMP); format: cell-based; details: Forskolin 10 mM, 1 mM and 0.1 mM
# Procedure: (§1) Ligand binding studies were performed two days after transfections, in three independent experiments. Transfected cells were incubated in duplicate with different concentrations (10^-6 to 10^-11M) of the human VIP, PACAP38 and secretin (SCT) peptides and ovine PACAP27 peptide for 30 minutes (Sigma-Aldrich, Spain). Homologous sea bream peptides are unavailable but their predicted amino acid sequences are 82%, 100%and 92% identical to human VIP, PACAP27 and PACAP38 respectively and important amino acids at N-terminus potential involved in receptor binding are totally conserved (unpublished data). […]
# (§2) The quantification of cAMP produced was determined by radioimmunoassay using the TRK432 kit (GE Healthcare, UK) following the manufacturer's instructions. […] The concentration of cAMP produced (pmol/well) was determined in duplicate for each sample and calculations performed based on a linear regression curve constructed using standard concentrations of labelled (^3H) cAMP. […] Data was analyzed by comparing the potency profile of each sbPAC1 receptor in the presence of different concentrations of test peptides and by comparing the potency profile of both receptors in the presence of identical peptide concentrations. […]
# [2] = system: Hek293 cell lines expressing the recombinant vector; assay: Forskolin activation of transfected Hek293 cells (cAMP); format: cell-based; details: Forskolin 10 mM, 1 mM and 0.1 mM
# Procedure: as §1, §2
# [3] = system: sbPAC1A; assay: cAMP production in Cos7 cells expressing sbPAC1A (RIA); format: cell-based, sea bream (Sparus auratus); details: for LOGEC50 for cAMP production: 10^-6 to 10^-11M peptide, cAMP by radioimmunoassay (TRK432), mean ± SEM of three independent experiments in duplicate, log value with negative sign
# Procedure: (§3) Specific primers for each sbPAC1 gene were designed to amplify the mature receptor sequence (Table 2) and were cloned into pcDNA3 vector (Invitrogen, UK) containing a signal peptide of CD33 and a T7-epitope tag (CD33-T7-pcDNA3, [66]). In order to facilitate cloning, restriction digestion sites for BglII and EcoRI enzymes were incorporated in the forward and reverse primers respectively. Template amplification was carried out using the thermocyle; 95°C for 2 minutes; 35 cycles of (95°C for 1 minute, 68°C for 1 minute and 70°C 2 minutes); 72°C for 10 minutes with a proof-reading Pfu DNA polymerase (Promega, Spain) in a 25 μl reaction volume containing 1 × PCR buffer (Promega, Spain), 1,5 mM MgCl2 (Promega, Spain), 0,2 mM dNTPs (Amersham), […] of each primer and 1,5 U Pfu DNA polymerase (3 U/μl)) and DNase Free water (Sigma-Aldrich, Spain). The amplified PCR products were cloned into pGEMT-easy vector (Promega, Spain), sequenced and subcloned into CD33-T7-pcDNA3 vector in frame with the T7-epitope tag. The recombinant constructs produced (CD33-T7-pcDNA3+sbPAC1A and CD33-T7-pcDNA3+sbPAC1B) were sequenced and used to transfect mammalian Cos7 and Hek293 cells lines. The CD86 (NM_175862) membrane protein of the immunoglobulin superfamily cloned in CD33-T7-pcDNA3 expression vector was used as positive control for cell transfection (de Vet et al., 2001).
# (§4) Mammalian Cos7 and Hek293 cell lines were transfected using the Effectene transfection kit (Qiagen, Germany) and the success of transfection was assessed by western blot and immunofluorescence assays using antisera raised against the T7-epitope tag protein [66]. One day prior to transfection, approximately 60,000 to 70,000 Cos7 and Hek293 cells were seeded and transfections carried out using approximately 0.4 μg of recombinant construct (pcDNA3+sbPAC1A or B) and cells were grown for 2 days at 37°C. The viability of transfected cells was determined by dye exclusion using Trypan blue (0,4% solution, Sigma) and the success of transfection calculated by fluorescent confocal microscopy using DAPI (4',6-Diamidino-2-phenylindole) and FITC (Fluorescein) staining for Cos7 cells and the FACS (Fluorescence Activated Cell Sorting) method for Hek293 cells. The percentage of cell transfection was estimated to be approximately 30% in both cell lines.
# Ligand binding studies were performed two days after transfections, in three independent experiments. Transfected cells were incubated in duplicate with different concentrations (10^-6 to 10^-11M) of the human VIP, PACAP38 and secretin (SCT) peptides and ovine PACAP27 peptide for 30 minutes (Sigma-Aldrich, Spain). Homologous sea bream peptides are unavailable but their predicted amino acid sequences are 82%, 100%and 92% identical to human VIP, PACAP27 and PACAP38 respectively and important amino acids at N-terminus potential involved in receptor binding are totally conserved (unpublished data). Prior to ligand-binding assays, Cos7 and Hek293 cells were washed 3 times with DMEM medium without fetal calf serum and incubated in a CO2 incubator with 1 mM of IBMX (3-Isobutyl-1-Methylxantine) for 30 minutes. Ligand-binding assays were performed by incubating the cells in fresh medium containing the peptides in the presence of 1 mM IBMX for 30 minutes at 37°C in the CO2 incubator. After incubation, cells were lysed and stored at -80°C until required. Mammalian Cos7 and Hek293 cells transfected with wild type pcDNA3 were used as negative controls which were incubated with the highest tested peptide concentration ([…]). Prior to assays the responsiveness of transfected Cos7 and Hek293 cells was tested by stimulating cAMP production using Forskolin ([…]; Sigma-Aldrich).
# The quantification of cAMP produced was determined by radioimmunoassay using the TRK432 kit (GE Healthcare, UK) following the manufacturer's instructions. Cos7 and Hek293 cells were lysed by sonication, centrifuged and the supernatant heat denatured for 10 minutes at 100°C. […]
# [4] = system: sbPAC1B; assay: cAMP production in Cos7 cells expressing sbPAC1B (RIA); format: cell-based, sea bream (Sparus auratus); details: for LOGEC50 for maximal cAMP production: 10^-6 to 10^-11M peptide, cAMP by radioimmunoassay (TRK432), mean ± SEM of three independent experiments in duplicate, log value with negative sign
# Procedure: as §3, §4
# Ligand binding studies were performed two days after transfections, in three independent experiments. Transfected cells were incubated in duplicate with different concentrations (10^-6 to 10^-11M) of the human VIP, PACAP38 and secretin (SCT) peptides and ovine PACAP27 peptide for 30 minutes (Sigma-Aldrich, Spain). […]
# The quantification of cAMP produced was determined by radioimmunoassay using the TRK432 kit (GE Healthcare, UK) following the manufacturer's instructions. […]
# [5] = system: pituitary cells; details: compared to GHRH and GnRH for PACAP38; ref [46],[51],[52]; cited from earlier work
# Excerpt: (§5) An intriguing aspect about the sbPAC1 genes is their divergent tissue distribution and this may be the basis of their specific physiological functions and persistence in the genome. Understanding the biological function of receptors is complex as it is not only the availability and concentration of receptors but also of ligands and accessory factors at a given site which will determine receptor preference/activity and ultimately biological function.
# [6] = system: endogenous receptors in Hek293; assay: Negative control: Hek293 cells transfected with pcDNA3 without insert; format: cell-based; details: maximum concentration of test peptide (10^-6 M)
# Excerpt: The sbPAC1A and sbPAC1B were successfully expressed in Cos7 and Hek293 cell lines as confirmed by immunofluorescence and Western blot analysis. Cos7 cell extracts subject to Western blot contained a specific immunoreactive fusion protein of approximately 52 kDa in transfected cells, which corresponds to the estimated molecular weight in silico of the fusion proteins, (T7PAC1A is 52.75 kDa and T7PAC1B is 52.32 kDa). […] For this reason only the results obtained with transfected Cos7 cells are presented.
# Ligand binding studies were performed two days after transfections, in three independent experiments. […]
# as §2
# [7] = system: PAC1; details: human PAC1; ref [18],[19]; cited from earlier work
# Excerpt: In vertebrates, activation of PAC1/VPAC receptors occurs via three intracellular transduction mechanisms. These involve either cyclic AMP (cAMP) production, IP turnover via PLC or/and calcium mobilization as a consequence of the activation of a G-protein complex. In mammals, five PAC1 isoforms, which result from the insertion of one or two, 28 (hip or hop1 variant) or ...
# [8] = system: gastric and pancreatic secretion; details: cod; ref [55],[56]; cited from earlier work
# Excerpt: as §5
# [9] = system: intestine; details: tilapia; ref [57]; cited from earlier work
# Excerpt: as §5
# [10] = transfected Cos7 cells, 30 minutes, 37°C, 1 mM IBMX
compound,measurement,setting,value
C=C[C@@]1(C)CC(=O)[C@]2(O)[C@@]3(C)[C@@H](O)CCC(C)(C)[C@@H]3[C@H](O)[C@H](OC(C)=O)[C@@]2(C)O1 [Forskolin],cAMP production with Forskolin,[1],maximal cAMP production
same,cAMP production with Forskolin,[2],maximal cAMP production
Pituitary Adenylate Cyclase-Activating Polypeptide [PACAP27],stimulation of sbPAC1A compared to sbPAC1B (LOGEC50 values for maximal cAMP production),"[3]; sbPAC1A vs sbPAC1B, P > 0.05",equally stimulated
Pituitary Adenylate Cyclase-Activating Polypeptide [PACAP38],LOGEC50 for cAMP production,[3]; [10],-8.54 ± 0.18 M
same,LOGEC50 for maximal cAMP production,[4]; [10],-8.92 ± 0.24 M
same,effect on fish GH secretion by pituitary cells,[5],more potent stimulatory effect on fish GH secretion by pituitary cells when compared to GHRH and GnRH
Pituitary Adenylate Cyclase-Activating Polypeptide [PACAP],responsiveness of Hek293 cells transfected with pcDNA3 without insert,[6],responsive
same,binding preference of PAC1,[7],preferentially binds PACAP
Vasoactive Intestinal Peptide [VIP],potency for sbPAC1A compared to sbPAC1B,"[3]; LOGEC50 comparison of sbPAC1A vs sbPAC1B, P < 0.05",significantly more potent for sbPAC1A
same,LOGEC50 for cAMP production,[3]; [10],-7.23 ± 0.20 M
same,stimulation of cAMP production compared with PACAP peptides,"[3]; two way Anova, Holm-Sidak, transfected Cos7 cells, P < 0.05",significantly lower (P < 0.05) than for PACAP peptides
same,LOGEC50 for maximal cAMP production,[4]; [10],-6.57 ± 0.14 M
same,stimulation of cAMP compared with PACAP27 and PACAP38,"[4]; two way Anova, Holm-Sidak, transfected Cos7 cells, P < 0.001",significantly lower than PACAP27 and PACAP38 (P < 0.001)
same,responsiveness of Hek293 cells transfected with pcDNA3 without insert,[6],responsive
same,effect on gastric and pancreatic secretion,[8],stimulates gastric and pancreatic secretion
same,effect on ion and water absorption by the intestine,[9],involved in ion and water absorption by the intestine
same,effect on fish GH secretion by pituitary cells,[5],little or no effect on GH release
secretin [SCT],increase above the basal concentration of cAMP production,"[3]; human SCT, Cos7 cells transformed with sbPAC1A, 30 minutes, 37°C, 1 mM IBMX, data not shown",negligible increase
same,increase above the basal concentration of cAMP production,"[4]; human SCT, Cos7 cells transformed with sbPAC1B, 30 minutes, 37°C, 1 mM IBMX, data not shown",negligible increase
